Tests used:
[1] = target: Rho-associated protein kinase 2 (Homo sapiens, UniProt O75116); test: (§1) Protein constructs were purified from a baculovirus expression system. The peptide substrate was fluorescent LANCE® Ultra ULight-CREBtide: […] (PerkinElmer, # TRF0107-D). Kinase reactions were carried out in a 10 μL volume in 384-well plates: 50 nM ULight-CREBtide substrate, 2 nM constitutively active ROCK1 or ROCK2 kinase, and test compound in DMSO (or DMSO only for controls) were diluted into assay buffer containing 50 mM Tris-HCl (pH=7.5), 10 mM MgCl2, 1 mM EGTA, 0.01% Tween-20, and 2 mM DTT such that the final concentration of DMSO was 0.5%. After a 90 minute incubation at room temperature on a shaker table, the kinase reaction was stopped by addition of 10 mM EDTA, and phosphorylation of the substrate was detected by adding 1 nM LANCE® Ultra Europium-anti-phospho-CREB (ser133) antibody (PerkinElmer, # TRF0200-D) and incubating for 60 minutes on a shaker at room temperature. The flurorescence resonance energy transfer (FRET) signals were read and analyzed on an Envision¿ 2103 Multilabel Reader (Perkin Elmer).
Sequence of Rho-associated protein kinase 2 (O75116 whole entry): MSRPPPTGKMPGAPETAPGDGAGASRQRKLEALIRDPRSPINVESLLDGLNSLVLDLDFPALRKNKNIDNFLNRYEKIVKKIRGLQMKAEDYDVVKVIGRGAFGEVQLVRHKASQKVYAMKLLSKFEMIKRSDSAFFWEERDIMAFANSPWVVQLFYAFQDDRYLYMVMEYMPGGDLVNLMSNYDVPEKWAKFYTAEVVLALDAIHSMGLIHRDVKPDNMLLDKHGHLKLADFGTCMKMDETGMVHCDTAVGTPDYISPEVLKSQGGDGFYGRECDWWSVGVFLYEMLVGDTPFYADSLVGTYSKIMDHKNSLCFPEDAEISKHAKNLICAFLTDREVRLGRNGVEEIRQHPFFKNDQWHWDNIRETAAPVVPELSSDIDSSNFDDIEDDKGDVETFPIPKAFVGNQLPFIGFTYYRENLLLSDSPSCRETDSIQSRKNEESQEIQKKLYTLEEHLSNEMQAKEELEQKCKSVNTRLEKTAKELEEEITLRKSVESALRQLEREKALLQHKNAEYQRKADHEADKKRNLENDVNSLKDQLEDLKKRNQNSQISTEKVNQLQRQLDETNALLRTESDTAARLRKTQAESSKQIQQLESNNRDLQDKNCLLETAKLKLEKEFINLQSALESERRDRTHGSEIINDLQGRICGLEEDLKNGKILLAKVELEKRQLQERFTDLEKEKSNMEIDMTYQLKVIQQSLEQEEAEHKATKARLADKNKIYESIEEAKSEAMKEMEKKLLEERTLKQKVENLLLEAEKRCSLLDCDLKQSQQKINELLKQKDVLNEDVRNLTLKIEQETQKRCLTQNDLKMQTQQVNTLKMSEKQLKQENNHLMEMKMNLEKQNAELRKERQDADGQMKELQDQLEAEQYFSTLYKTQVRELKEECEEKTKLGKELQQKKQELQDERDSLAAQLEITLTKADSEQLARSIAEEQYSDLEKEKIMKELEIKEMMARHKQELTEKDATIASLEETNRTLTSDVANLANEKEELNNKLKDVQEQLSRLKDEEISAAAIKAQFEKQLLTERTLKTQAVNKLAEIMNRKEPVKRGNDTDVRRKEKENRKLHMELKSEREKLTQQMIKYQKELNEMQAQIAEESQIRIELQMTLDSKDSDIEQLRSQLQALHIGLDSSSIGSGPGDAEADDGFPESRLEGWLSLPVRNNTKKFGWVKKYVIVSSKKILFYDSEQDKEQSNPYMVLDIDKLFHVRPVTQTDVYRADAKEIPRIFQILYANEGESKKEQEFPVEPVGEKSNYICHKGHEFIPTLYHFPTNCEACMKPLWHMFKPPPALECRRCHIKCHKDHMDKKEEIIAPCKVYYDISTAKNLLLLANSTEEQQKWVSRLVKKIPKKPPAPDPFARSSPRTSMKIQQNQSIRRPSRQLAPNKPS

[2] = target: Rho-associated protein kinase 1 (Homo sapiens, UniProt Q13464); test: as §1
Sequence of Rho-associated protein kinase 1 (Q13464 whole entry): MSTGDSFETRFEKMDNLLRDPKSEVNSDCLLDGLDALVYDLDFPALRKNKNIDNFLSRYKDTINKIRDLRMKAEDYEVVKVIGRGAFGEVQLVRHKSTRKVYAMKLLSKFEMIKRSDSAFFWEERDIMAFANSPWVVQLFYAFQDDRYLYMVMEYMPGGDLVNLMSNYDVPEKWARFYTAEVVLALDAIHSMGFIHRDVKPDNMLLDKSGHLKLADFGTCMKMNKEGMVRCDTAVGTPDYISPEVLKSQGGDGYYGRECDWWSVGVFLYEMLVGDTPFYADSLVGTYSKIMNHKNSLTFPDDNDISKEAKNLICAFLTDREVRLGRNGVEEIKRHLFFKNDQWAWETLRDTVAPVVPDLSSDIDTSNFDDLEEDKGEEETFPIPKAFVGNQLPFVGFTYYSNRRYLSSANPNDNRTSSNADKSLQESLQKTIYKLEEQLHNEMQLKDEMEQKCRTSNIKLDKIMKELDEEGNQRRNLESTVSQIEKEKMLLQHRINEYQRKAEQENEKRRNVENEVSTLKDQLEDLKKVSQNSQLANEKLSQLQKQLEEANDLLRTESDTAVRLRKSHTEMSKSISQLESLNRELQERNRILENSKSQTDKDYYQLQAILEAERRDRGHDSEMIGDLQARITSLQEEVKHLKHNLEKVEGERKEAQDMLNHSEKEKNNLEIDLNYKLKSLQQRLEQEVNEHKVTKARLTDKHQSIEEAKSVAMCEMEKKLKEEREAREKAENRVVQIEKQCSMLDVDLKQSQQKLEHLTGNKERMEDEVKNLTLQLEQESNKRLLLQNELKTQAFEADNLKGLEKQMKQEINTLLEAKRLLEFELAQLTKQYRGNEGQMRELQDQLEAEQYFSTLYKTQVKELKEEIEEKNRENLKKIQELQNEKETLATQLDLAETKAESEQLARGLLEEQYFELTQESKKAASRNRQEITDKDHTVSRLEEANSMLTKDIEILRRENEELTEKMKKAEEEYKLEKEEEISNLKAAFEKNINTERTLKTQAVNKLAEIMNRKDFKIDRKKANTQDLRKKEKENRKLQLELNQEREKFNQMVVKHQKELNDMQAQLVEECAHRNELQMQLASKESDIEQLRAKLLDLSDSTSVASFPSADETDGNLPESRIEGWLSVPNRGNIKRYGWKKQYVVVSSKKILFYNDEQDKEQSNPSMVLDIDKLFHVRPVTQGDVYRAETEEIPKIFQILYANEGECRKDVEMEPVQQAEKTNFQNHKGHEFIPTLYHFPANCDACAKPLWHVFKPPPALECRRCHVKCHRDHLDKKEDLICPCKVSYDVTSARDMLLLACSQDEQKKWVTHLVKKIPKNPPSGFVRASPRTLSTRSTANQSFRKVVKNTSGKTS

## CC(=O)Nc1ccc(Cl)c(-c2nnc(Nc3ccc4[nH]ncc4c3Cl)s2)c1
[1]
  IC50: < 1000 nM
[2]
  IC50: > 30000 nM

## CCCCOC(=O)N(c1nnc(-c2cccc(NC(=O)Cc3ccc(F)cc3)c2)s1)c1ccc2[nH]ncc2c1Cl
[1]
  IC50: < 1000 nM
[2]
  IC50: > 30000 nM

## CC(C)(O)C(=O)Nc1cccc(-c2nnc(Nc3ccc4[nH]ncc4c3Cl)s2)c1
[1]
  IC50: < 1000 nM
[2]
  IC50: < 1000 nM

## COCCOC(=O)Nc1cc(-c2nnc(Nc3ccc4[nH]ncc4c3Cl)s2)ccn1
[1]
  IC50: < 1000 nM
[2]
  IC50: > 30000 nM

## CC(=O)Nc1cc(C(N)=O)cc(-c2nnc(Nc3ccc4[nH]ncc4c3)s2)c1
[1]
  IC50: < 1000 nM
[2]
  IC50: < 1000 nM

## CC(=O)Nc1cccc(-c2nnc(Nc3ccc4[nH]ncc4c3Br)s2)c1
[1]
  IC50: < 1000 nM
[2]
  IC50: < 1000 nM

## Clc1c(Nc2nnc(-c3cccc4c3ncn4CCN3CCCC3)s2)ccc2[nH]ncc12
[2]
  IC50: > 30000 nM

## Cc1cn2cccc(-c3nnc(Nc4ccc5[nH]ncc5c4Cl)s3)c2n1
[1]
  IC50: < 1000 nM
[2]
  IC50: < 1000 nM

## O=C(CC(F)(F)F)Nc1cccc(-c2nnc(Nc3ccc4[nH]ncc4c3Cl)s2)c1
[1]
  IC50: < 1000 nM
[2]
  IC50: < 1000 nM

## CC(=O)Nc1cc(C(N)=O)cc(-c2nnc(Nc3ccc4[nH]ncc4c3Cl)s2)c1
[1]
  IC50: < 1000 nM
[2]
  IC50: < 1000 nM

## O=S(=O)(CCO)Nc1cccc(-c2nnc(Nc3ccc4[nH]ncc4c3)s2)c1
[1]
  IC50: < 1000 nM
[2]
  IC50: > 30000 nM

## CN1CC(C(=O)Nc2cccc(-c3nnc(Nc4ccc5[nH]ncc5c4Cl)s3)c2)C1
[1]
  IC50: < 1000 nM

## CNC(=O)c1cc(NC(C)=O)cc(-c2nnc(Nc3ccc4[nH]ncc4c3Cl)s2)c1
[1]
  IC50: < 1000 nM
[2]
  IC50: < 1000 nM

## Clc1c(Nc2nnc(-c3cccc(-c4nccn4CCN4CCOCC4)c3)s2)ccc2[nH]ncc12
[1]
  IC50: < 1000 nM
[2]
  IC50: < 1000 nM

## CCOC(=O)N(c1nnc(-c2cccc(NC(=O)Cc3ccc(F)cc3)c2)s1)c1ccc2[nH]ncc2c1Cl
[2]
  IC50: > 30000 nM

## CC1(C(=O)Nc2cccc(-c3nnc(Nc4ccc5[nH]ncc5c4Cl)s3)c2)CCCCC1
[1]
  IC50: < 1000 nM

## CC(=O)Nc1cc(C(=O)N2CCOCC2)cc(-c2nnc(Nc3ccc4[nH]ncc4c3Cl)s2)c1
[1]
  IC50: < 1000 nM
[2]
  IC50: < 1000 nM

## N#Cc1ccc(-c2cn3cccc(-c4nnc(Nc5ccc6[nH]ncc6c5Cl)s4)c3n2)cc1
[1]
  IC50: < 1000 nM
[2]
  IC50: > 30000 nM

## NCc1ccc(C(=O)Nc2cccc(-c3nnc(Nc4ccc5[nH]ncc5c4)s3)c2)cn1
[1]
  IC50: < 1000 nM
[2]
  IC50: < 1000 nM

## O=C(Nc1cccc(-c2nnc(Nc3ccc4[nH]ncc4c3Cl)s2)c1)C(F)(F)F
[1]
  IC50: < 1000 nM
[2]
  IC50: > 30000 nM

## CC(=O)Nc1cc(C(=O)NCCN(C)C)cc(-c2nnc(Nc3ccc4[nH]ncc4c3Cl)s2)c1
[1]
  IC50: < 1000 nM
[2]
  IC50: < 1000 nM

## Clc1c(Nc2nnc(-c3cccc(-c4nccn4CCN4CCCC4)c3)s2)ccc2[nH]ncc12
[1]
  IC50: < 1000 nM
[2]
  IC50: > 30000 nM

## CC(=O)Nc1cc(C(=O)N2CCNCC2)cc(-c2nnc(Nc3ccc4[nH]ncc4c3Cl)s2)c1
[1]
  IC50: < 1000 nM
[2]
  IC50: < 1000 nM

## CN(C)CCn1cnc2c(-c3nnc(Nc4ccc5[nH]ncc5c4Cl)s3)cccc21
[1]
  IC50: < 1000 nM
[2]
  IC50: < 1000 nM

## CN1CCC(C(=O)Nc2cccc(-c3nnc(Nc4ccc5[nH]ncc5c4Cl)s3)c2)CC1
[1]
  IC50: < 1000 nM
[2]
  IC50: < 1000 nM

## O=C(Nc1cccc(-c2nnc(Nc3ccc4[nH]ncc4c3Cl)s2)c1)C1CCNCC1
[1]
  IC50: < 1000 nM

## CC(=O)Nc1cc(C)cc(-c2nnc(Nc3ccc4[nH]ncc4c3)s2)c1
[1]
  IC50: < 1000 nM
[2]
  IC50: > 30000 nM

## CC(=O)Nc1cccc(-c2nnc(Nc3ccc4[nH]ncc4c3)s2)c1
[1]
  IC50: < 1000 nM
[2]
  IC50: < 1000 nM

## O=C(Nc1cccc(-c2nnc(Nc3ccc4[nH]ncc4c3Cl)s2)c1)C1CCCCC1
[1]
  IC50: < 1000 nM
[2]
  IC50: < 1000 nM
